What is called MIC is the lowest concentration found to suppress growth.

In data set [1] the test system is penicillinase. Nature of the data set: Color change / absorbance spectrum in penicillinase. The conditions noted are these: for Absorbance/time response in penicillinase, comparison with CENTA: FIG. 5. The class given is biochemical. An excerpt: FIG. 3 is a set of absorbance spectrum charts showing the color change of Compound 1 (ANT) in the presence of a β-lactamase came with a definite shift in Compound 1 (ANT) absorbance spectrum upon adding penicillinase, thus cleaving the β-lactam ring and expelling the 3′-leaving group. […] As the β-lactam ring is cleaved by the enzymes, the peak at 260 nm disappears.
FIG. 5 is a comparison between Compound 1 (ANT) response and CENTA response.
FIG. 6 is a chart showing deprotected ANT-maleimide in penicillinase, measuring the absorbance of conjugate at different time points.

For data set [2], the system named is Staphylococcus aureus. As to conditions: cited from earlier work.
Data set [3] deals with gram-negative species. As to conditions: cited from earlier work.
For data set [4], the system named is B. cereus. The data set can be described thus: Microdilution assay, antibacterial efficacy (MIC). The format is cell-based. The conditions noted are these: Bacillus cereus, Gram +, βL producing Yes, 18 h, 37° C. For orientation: Dilution methods test growth across graded concentrations, often in twofold steps.
The target of data set [5] is T1, β-lactamase from Bacillus cereus (Bacillus cereus, UniProt P04190).
T1 construct: purchased MilliporeSigma
T1 sequence (P04190 31-257): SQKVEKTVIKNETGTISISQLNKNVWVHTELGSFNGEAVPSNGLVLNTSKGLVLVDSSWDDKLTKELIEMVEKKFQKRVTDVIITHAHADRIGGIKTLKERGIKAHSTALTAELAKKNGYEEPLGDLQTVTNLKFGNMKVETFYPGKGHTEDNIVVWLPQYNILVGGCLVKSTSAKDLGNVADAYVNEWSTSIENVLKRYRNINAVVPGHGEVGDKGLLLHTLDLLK
The class given is biochemical. The procedure: (§1) Substrate Compound 2 was tested with a class B β-lactamase from Bacillus cereus (Bebrone et al., Antimicrobial Agents Chemother., 45, 1868-1871 (2001)). Substrate Compound 2 was tested with class C β-lactamases (from Pseudomonas aeruginosa (Mirsalehian et al., Iranian J. Microbiol., 6, 306-310 (2014)) and β-lactamase from Enterobacter cloacae (Seeberg, Tolxdorff-Neutzling & Wiedemann, Antimicrobial Agents Chemother., 23, 918-925 (1983)). These bacteria are present in many infections, including wounds. See, Bodey et al., Clinical Infectious Diseases, 5, 279-313 (2011) and Davin-Regli & Pages, Frontiers in Microbiology, 6, 392 (2015).
The inventors measured the concentration-dependent absorbance shift in a spectral scan of Substrate Compound 2 with different concentrations (U/mL) of β-lactamase from Bacillus cereus or in phosphate-buffered saline after 45 minutes at 37° C. The absorbance signal at 410 nm increased to a maximum as a function of β-lactamase concentration. The inventors also performed these measurements for β-lactamase from Pseudomonas aeruginosa and Enterobacter cloacae.
96-well plate. […] The samples of Substrate Compound 2 in β-lactamases from Bacillus cereus (200 U/mL in M sodium phosphate buffer, pH 7) were incubated for thirty minutes at 37° C. before the absorbance of the solution from 230 to 650 nm was measured using a BioTekQ® […]

Data set [6] is described as follows: Aqueous solubility. The format is physicochemical.
Data set [7] addresses T2, β-lactamase from Enterobacter cloacae (Enterobacter cloacae, UniProt P05364).
T2 construct: purchased MilliporeSigma
The data set can be described thus: Colorimetric / UV-vis response to β-lactamase. The format is biochemical. As to conditions: 10% DMSO, 37° C. The protocol:
as §1
(§2) 96-well plate. Substrate Compound 2 was dissolved in DMSO at a concentration of two mg/ml. Fifteen μL of Substrate Compound 2 was added to a well of a 96-well plate. […] The samples of Substrate Compound 2 in β-lactamases from Bacillus cereus (200 U/mL in M sodium phosphate buffer, pH 7) were incubated for thirty minutes at 37° C. before the absorbance of the solution from 230 to 650 nm was measured using a BioTekQ®
(§3) Cytation3 plate reader. For the samples in Pseudomonas aeruginosa (50 U/mL in 0.15 M sodium phosphate buffer, pH 7), the absorbance was measured after ninety minutes at 37° C. […] For the samples in Enterobacter cloacae (1 U/ml in M sodium phosphate buffer, pH 7), the absorbance was measured after three hours at 37° C. […]

In data set [8] the target is T3, β-lactamase from Pseudomonas aeruginosa (Pseudomonas aeruginosa, UniProt P24735).
T3 construct: purchased MilliporeSigma
T3 sequence (P24735 27-397): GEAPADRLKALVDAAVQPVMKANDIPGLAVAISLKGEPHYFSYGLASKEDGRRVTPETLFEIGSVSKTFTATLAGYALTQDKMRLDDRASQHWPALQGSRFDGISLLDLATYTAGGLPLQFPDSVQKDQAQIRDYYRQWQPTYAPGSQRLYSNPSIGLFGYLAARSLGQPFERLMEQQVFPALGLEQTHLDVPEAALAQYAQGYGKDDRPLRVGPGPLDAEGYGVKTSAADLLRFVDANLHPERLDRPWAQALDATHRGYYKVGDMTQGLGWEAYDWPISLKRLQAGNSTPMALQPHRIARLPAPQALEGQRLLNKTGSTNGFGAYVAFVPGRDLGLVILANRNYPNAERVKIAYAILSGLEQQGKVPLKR
The data set can be described thus: Colorimetric / UV-vis response to β-lactamase. As to conditions: 10% DMSO, 37° C. The class given is biochemical. The protocol:
as §1, §2, §3

Data set [9] concerns MRSA MW2. The data set can be described thus: Microdilution assay, antibacterial efficacy (MIC). The format is cell-based, methicillin-resistant Staphylococcus aureus. As to conditions: Staphylococcus aureus, Gram +, βL producing Yes, 18 h, 37° C. The protocol:
(§4) The antibacterial effect of Substrate Compound 2 was tested against Staphylococcus aureus, Escherichia coli, MRSA, and Pseudomonas aeruginosa in a microdilution assay. Substrate Compound 2 was dissolved in dimethyl sulfoxide at a concentration of 2.56 mg/mL and diluted to a concentration of 256 μg/mL in sterile phosphate-buffered saline. Substrate Compound 2 solutions and a control of 10% dimethyl sulfoxide in cation-adjusted Mueller Hinton broth (CMHB) or tryptic soy broth (TSB) were serially diluted 1:2 with cation-adjusted Mueller Hinton broth or tryptic soy broth in a 96-well plate. Cation-adjusted Muller-Hinton broth (CMHB) is commercially available from MilliporeSigma (Billerica, MA, USA).
(§5) Bacteria in its log phase was added to the wells at a final concentration of 10^5 CFU/mL. Positive controls of bacteria cultured in only media and negative controls of cation-adjusted Mueller Hinton broth or tryptic soy broth without bacteria were included. After eighteen hours of shaking at 100 rpm at 37° C., the optical density at 600 nm (OD600) was measured using a BioTekQ® normalized bacteria density was calculated using equation 1: […]

The subject of data set [10] is E. cloacae. The data set can be described thus: Microdilution assay, antibacterial efficacy (MIC). As to conditions: Enterobacter cloacae, Gram −, βL producing Yes, 18 h, 37° C. The format is cell-based.
Data set [11] relates to S. aureus 29213. The data set can be described thus: Microdilution assay, antibacterial efficacy (MIC). As to conditions: Staphylococcus aureus, Gram +, βL producing Yes, 18 h, 37° C. The format is cell-based. The protocol: as §4, §5
The subject of data set [12] is P. aeruginosa PA01. The data set can be described thus: Microdilution assay, antibacterial efficacy (MIC). The format is cell-based. As to conditions: Pseudomonas aeruginosa, Gram −, βL producing Yes, 18 h, 37° C. The procedure: as §4, §5
Data set [13] has as its system E. coli 25922. The data set can be described thus: Microdilution assay, antibacterial efficacy (MIC). The conditions noted are these: Escherichia coli, Gram −, βL producing Yes, 18 h, 37° C. The format is cell-based. The procedure: as §4, §5
For data set [14], the system named is S. aureus 25923. The data set can be described thus: Microdilution assay, antibacterial efficacy (MIC). The class given is cell-based. As to conditions: Staphylococcus aureus, Gram +, βL producing No, 18 h, 37° C. The protocol: as §4, §5
The test system of data set [15] is β-lactamases from Bacillus cereus, Pseudomonas aeruginosa, and Enterobacter cloacae. Nature of the data set: Michaelis-Menten kinetics of hydrolysis. The class given is biochemical. The conditions noted are these: compared with commercially available chromogenic β-lactamase substrates.
Description: To further characterize substrate-enzyme relationships between Substrate Compound 2 and β-lactamases, kinetic parameters were measured using Michaelis-Menten kinetics.
Parameters were determined for Substrate Compound 2 and commercially available chromogenic β-lactamase substrates CENTA and nitrocefin as comparisons, using different β-lactamases. All kinetic experiments were performed for concentrations of Substrate Compound 2 ranging from 0.025-0.2 mg/mL with 10% DMSO, and concentrations of 4 ranging from 1.5-12.1 mg/mL in 0.15 M sodium phosphate buffer pH 7 at 37° C. Hydrolysis of Substrate Compound 2 was measured by continuously recording the change in absorbance at 410 nm on a BioTekQ® Cytation3 plate reader. The kM, kcat, and VMax values were calculated through the initial velocities and the direct fitting of the Michaelis-Menten curve to the data through GraphPad Prism software.

In brackets after ≈: the same amount, converted by molar mass.

T2 sequence (P05364 21-381): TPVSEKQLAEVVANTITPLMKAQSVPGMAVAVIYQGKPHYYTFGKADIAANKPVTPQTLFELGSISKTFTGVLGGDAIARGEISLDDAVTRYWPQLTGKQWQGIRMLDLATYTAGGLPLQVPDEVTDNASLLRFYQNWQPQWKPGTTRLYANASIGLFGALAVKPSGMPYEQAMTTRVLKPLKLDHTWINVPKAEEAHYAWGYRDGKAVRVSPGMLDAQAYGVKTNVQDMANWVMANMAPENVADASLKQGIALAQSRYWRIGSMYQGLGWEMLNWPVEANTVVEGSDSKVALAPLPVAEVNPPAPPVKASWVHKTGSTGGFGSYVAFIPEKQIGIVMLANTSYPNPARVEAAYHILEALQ

For `O=C(Cc1cccs1)N[C@@H]1C(=O)N2C(C(=O)O)=C(CSc3ccc([N+](=O)[O-])c(C(=O)O)c3)CS[C@H]12` [CENTA], the “Absorbance/time response in penicillinase, comparison with CENTA” value in [1] is reported as “reaches its maximum absorbance at a faster rate than Compound 1 (ANT)”. In addition, the “Antibacterial activity against Staphylococcus aureus” value in data set [2] is reported as “some activity”. Moreover, the “Antibacterial activity against gram-negative species” value in data set [3] is “not antibacterial”.

For `O=C(Cc1cccs1)N[C@@H]1C(=O)N2C(C(=O)O)=C(/C=C/c3ccc([N+](=O)[O-])cc3[N+](=O)[O-])CS[C@H]12` [nitrocefin], in [2], the “Antibacterial activity against Staphylococcus aureus” value is “some activity”. Besides, the “Antibacterial activity against gram-negative species” value in data set [3] was “not antibacterial”.

Consider `COc1ccc(COC(=O)C2=C(CSc3ccc([N+](=O)[O-])cc3)CSC3C(N)C(=O)N23)cc1` (stereo not drawn) [Compound 1], for which, in data set [1] (1.5 hours at 37° C.), the “Color change in penicillinase compared to PBS” value was “showed a significant color change” and the “Shift of maximum absorbance peak on cleavage by penicillinase” value is given as “maximum absorbance peak shifts from 345 nm to 410 nm”. Further, the “Color change of the conjugate incubated in penicillinase or phosphate-buffered saline” value in data set [1] (Example 1, protected conjugate of ACLE and NBT) is on record as “does not undergo a color change”. Moreover, the “Absorbance/time response in penicillinase, comparison with CENTA” value in [1] was “behave similarly”.

As for `NC1C(=O)N2C(C(=O)O)=C(CSc3ccc([N+](=O)[O-])cc3)CSC12` (stereo not drawn) [Substrate Compound 2], the MIC is over 128 µg/mL in data set [4]; over 128 µg/mL in data set [9]; over 128 µg/mL in data set [10]; 8 µg/mL (≈ 21.8 µM) in [11]; over 128 µg/mL in data set [12]; over 128 µg/mL in data set [13]. In addition, the minimal inhibitory concentration (MIC) in [14] is 8 µg/mL (≈ 21.8 µM). In [5] (absorbance at 410 nm, 45 minutes at 37° C., β-lactamase 0.78-400 U/mL), the “Lower detection limit of β-lactamase” value is given as “approximately 3.12 U/mL”. In addition, the “Color change when mixed with β-lactamase” value in data set [5] (β-lactamase from Bacillus cereus, 10% DMSO, 37° C.) is “changed color from clear to yellow”; in data set [7], “changed color from clear to yellow”; in data set [8], “changed color from clear to yellow”. In addition, the Aqueous solubility entry in [6] is “not soluble in aqueous conditions”. The “Kinetic rate of hydrolysis by β-lactamases” value in [15] was “kinetic rate similar to commercially available chromogenic β-lactamase substrates”.

As for `CN(C)c1ccc(N=Nc2cccc[n+]2CC2=C(C(=O)[O-])N3C(=O)[C@@H](NC(=O)Cc4cccs4)[C@H]3SC2)cc1` [PADAC], the “Antibacterial activity against Staphylococcus aureus” value in [2] is “some activity”. The “Antibacterial activity against gram-negative species” value in [3] is given as “not antibacterial”.

The values are drawn from patent US11957690B2, “Chromogenic beta-lactamase substrate” (BROWN UNIVERSITY, priority 2018, dated 2024).
